One test concerns RyR2-R4496C KI mice. Description: Stress-induced ventricular tachycardia in RyR2-R4496C knock-in mice (CPVT model). The test is classed as in vivo, mouse. The settings on record: 16 mg/kg/day i.p. for 5 days, preliminary. How it is done: The electrocardiograms (ECG) of the R4496C KI mice were continuously monitored by using telemetric ECG recordings before and after the injection of epinephrine and caffeine. The incidence of ventricular tachycardia (VT) was assessed by determining the duration of VT occurring during a 2-min period (% of time).
In order to assess the efficacy of compounds of the present invention in suppressing cardiac arrhythmia at the animal level, genetically engineered knock-in mice were generated harboring RyR2 mutations that are associated with cardiac arrhythmia and sudden death. A heterozygous knock-in mouse line harboring the disease-causing RyR2 mutation, R4496C, has been prepared. Similar to patients who carry the mutation, the R4496C mutant mice are likely prone to stress-induced cardiac arrhythmia and sudden death. If this is the case, this R4496C mouse model may be used to test if compounds of the present invention are able to reduce the incidence of stress-induced cardiac arrhythmia and sudden death. Briefly, mutant mice will be pretreated with or without a positive compound identified above. Epinephrine and caffeine will be injected into the mutant mice to induce cardiac arrhythmia. Telemetric ECG recordings will be used to monitor the cardiac activity at rest and during epinephrine and caffeine perfusion. […]

For test [1], the system named is SOICR in rat ventricular myocytes. As to the kind of experiment: SOICR in rat ventricular myocytes (single cell Ca2+ imaging, fluo-4). The test is classed as cell-based. As to conditions: for pIC50: Rattus norvegicus, Ventricular myocyte. How it is done: Rat ventricular myocytes were loaded with a fluorescent Ca^2+ indicator, fluo 4-AM, and incubated at a high concentration of external Ca^2+ (10 mM) to induced SR Ca^2+ overload and SOICR, which manifests as Ca^2+ oscillations.
In the experiments shown in FIG. 3, rat ventricular myocytes were loaded with a fluorescent Ca^2+ indicator, fluo-4, and incubated at a high concentration of extracellular Ca^2+ (10 mM) to induce SR Ca^2+ overload and SOICR, which manifests as Ca^2+ waves/oscillations. These Ca^2+ oscillations were monitored by a single cell Ca^2+ imaging technique.
(§1) Further verification of whether these identified compounds also work in cardiac cells, the effect of these compounds on SOICR in rat ventricular myocytes may also be determined. Rat ventricular myocytes may be isolated according to the standard procedure using enzymatic digestion. Freshly isolated cells are loaded with a fluorescent Ca^2+ dye, fluo 4-AM, and bathed at high concentrations of extracellular Ca^2+ (5-10 mM) to induce SR Ca^2+ overload and SOICR. The intracellular Ca^2+ transients as a result of SOICR will be monitored by measuring the fluorescent intensity using a fluorescent microscope. Various concentrations of the selected compounds (10 nM to 100 μM) will be applied and the resulting changes in intracellular Ca^2+ transients will be determined and analyzed.

The conditions of test [2]: patients with heart failure; Miller, 2003; cited from earlier work.
In a further test the target is β-adrenergic receptors. The settings on record: Yao et al., 2003; read-out: IC50 of β-blocking activity; cited from earlier work.
The test system of another test is β-adrenergic receptor. Description: β-blocking: isoproterenol-induced phosphorylation of RyR2 at serine-2030 in rat cardiac myocytes (Western blot). Type of test: cell-based. As to conditions: 200 nM isoproterenol; for concentration that completely blocks the β-adrenergic receptor: S2030 phosphorylation. How it is done:
The β-adrenergic receptors were then stimulated by the addition of 200 nM isoproterenol (Iso) in the continued presence of drugs for 30 min at 37° C. Whole cell lysates were prepared and used for Western blotting (WB) analyses.
It is known that stimulation of the β-adrenergic receptor (AR) by isoproterenol leads to the activation of the cAMP/protein kinase A (PKA) signaling pathway, which, in turn, results in the phosphorylation by PKA of various protein targets, including the RyR2 channel. RyR2 is specifically phosphorylated at the residue serine-2030 (S2030) upon β-AR stimulation by isoproterenol (Xiao et al., 2005). […] To do this, freshly isolated rat cardiac myocytes are pre-treated with various concentrations of the selected compounds for 5 min, followed by stimulation of the β-AR with 100-200 nM isoproterenol in the continued presence of the selected compounds for 30 min. Whole cell lysates are then prepared and used for determining the level of phosphorylation of RyR2 at S2030 by Western blotting using a site- and phospho-specific antibody against the phosphorylated S2030 site.
(In general: Immunoblotting shows a protein as a band on a membrane.)

A further test has as its target T1, RyR2-N4104K mutant (Mus musculus, UniProt E9Q401, N4103K).
T1 construct: expressed in transfected cells; host or cells: HEK293
Description: SOICR in HEK293 cells expressing the N4104K RyR2 mutant. Type of test: cell-based. How it is done:
(§2) Intracellular Ca^2+ transients were monitored using single cell Ca^2+ imaging.
(§3) HEK293 cells may be loaded with a fluorescent Ca^2+ dye, fura-2-AM. SOICR, which manifests in the form of Ca^2+ oscillations, is continuously monitored by measuring the fluorescent changes using the single cell Ca^2+ imaging technique. Cells will be perfused with increasing concentrations (10 nM to 100 μM) of the compound. The frequency and amplitude of Ca^2+ oscillations under each condition will be determined and analyzed. Compounds that inhibit SOICR are expected to reduce the frequency of Ca^2+ oscillations, or abolish Ca^2+ oscillations.
as §1, with “Freshly isolated cells are loaded with a fluorescent Ca^2+ dye, fluo 4-AM, and bathed at high concentrations of extracellular Ca^2+ (5-10 mM) to induce SR Ca^2+ overload and SOICR.” left out

In the next test the test system is RyR2. Description: Initial investigations studying RyR2: suppression of SOICR by analogues. Type of test: cell-based.
Test [3] has as its target RyR2 channel (Homo sapiens, UniProt Q92736). The settings on record: Honen et al., 2003; cited from earlier work.
In a further test the target is T2, mutant RyR2 channels (Mus musculus, UniProt E9Q401, R4495C).
T2 construct: expressed in transfected cells; host or cells: HEK293 (cell lysate, detergent-solubilised)
As to the kind of experiment: [3H]ryanodine binding, basal channel activity of RyR2. The test is classed as biochemical.
Source text: as §2
[^3H]Ryanodine binding has been widely used as a functional assay for assessing the activity of the RyR2 channel. […] These [^3H]ryanodine binding studies reveal whether suppression of SOICR by a compound is mediated by inhibition of the RyR2 channel activity.

The target of test [4] is T3, RyR2 channel (Mus musculus, UniProt E9Q401, R4495C).
T3 construct: expressed in transfected cells; host or cells: HEK293 (cell lysate, detergent-solubilised)
As to the kind of experiment: Ca2+ dependence of [3H]ryanodine binding (sensitivity of RyR2 to Ca2+ activation, CICR). Type of test: biochemical. As to conditions: 300 μM (FIG. 4D).
Source text: as §2
Alternatively, the effect of compounds on CICR may be determined using [^3H]ryanodine binding. As CICR is dependent, to a large extent, on the sensitivity of the RyR2 channel to activation by Ca^2+, the effect of a compound on CICR may be determined by assessing the impact of the compound on the sensitivity of the RyR2 channel to Ca^2+ activation. To this end, [^3H]ryanodine binding to the RyR2 channel in a wide range of Ca^2+ concentrations may be measured. The sensitivity (EC50) of [^3H]ryanodine binding to RyR2 in the absence and presence of a particular compound may be determined.

Another test concerns the target T4, RyR2-R4496C mutant (Mus musculus, UniProt E9Q401, R4495C).
T4 construct: expressed in transfected cells; host or cells: HEK293
As to the kind of experiment: SOICR in HEK293 cells expressing RyR2-R4496C mutant (fura-2 single cell Ca2+ imaging). Type of test: cell-based. The settings on record: up to 500 μM.
Source text: as §2
This bioassay takes advantage of the finding that HEK293 cells expressing RyR2 mutants associated with cardiac arrhythmia and sudden death, readily display SOICR at elevated extracellular Ca^2+. […] This assay may be employed to determine the dose-dependent effect of each proposed compound on SOICR.
as §3

These results are taken from US8703804B2, “Ryanodine receptor inhibitors and methods relating thereto” (UTI Limited Partnership, priority 2006, dated 2014).

Each structure is given as a SMILES string. pIC50: −log10 of the molar value. Entries after “also recorded” stand apart in the source; their conditions may differ. Read-outs that look alike come from different tables or passages of the source.

RyR2 channel (Homo sapiens, UniProt Q92736), sequence (Q92736 whole entry): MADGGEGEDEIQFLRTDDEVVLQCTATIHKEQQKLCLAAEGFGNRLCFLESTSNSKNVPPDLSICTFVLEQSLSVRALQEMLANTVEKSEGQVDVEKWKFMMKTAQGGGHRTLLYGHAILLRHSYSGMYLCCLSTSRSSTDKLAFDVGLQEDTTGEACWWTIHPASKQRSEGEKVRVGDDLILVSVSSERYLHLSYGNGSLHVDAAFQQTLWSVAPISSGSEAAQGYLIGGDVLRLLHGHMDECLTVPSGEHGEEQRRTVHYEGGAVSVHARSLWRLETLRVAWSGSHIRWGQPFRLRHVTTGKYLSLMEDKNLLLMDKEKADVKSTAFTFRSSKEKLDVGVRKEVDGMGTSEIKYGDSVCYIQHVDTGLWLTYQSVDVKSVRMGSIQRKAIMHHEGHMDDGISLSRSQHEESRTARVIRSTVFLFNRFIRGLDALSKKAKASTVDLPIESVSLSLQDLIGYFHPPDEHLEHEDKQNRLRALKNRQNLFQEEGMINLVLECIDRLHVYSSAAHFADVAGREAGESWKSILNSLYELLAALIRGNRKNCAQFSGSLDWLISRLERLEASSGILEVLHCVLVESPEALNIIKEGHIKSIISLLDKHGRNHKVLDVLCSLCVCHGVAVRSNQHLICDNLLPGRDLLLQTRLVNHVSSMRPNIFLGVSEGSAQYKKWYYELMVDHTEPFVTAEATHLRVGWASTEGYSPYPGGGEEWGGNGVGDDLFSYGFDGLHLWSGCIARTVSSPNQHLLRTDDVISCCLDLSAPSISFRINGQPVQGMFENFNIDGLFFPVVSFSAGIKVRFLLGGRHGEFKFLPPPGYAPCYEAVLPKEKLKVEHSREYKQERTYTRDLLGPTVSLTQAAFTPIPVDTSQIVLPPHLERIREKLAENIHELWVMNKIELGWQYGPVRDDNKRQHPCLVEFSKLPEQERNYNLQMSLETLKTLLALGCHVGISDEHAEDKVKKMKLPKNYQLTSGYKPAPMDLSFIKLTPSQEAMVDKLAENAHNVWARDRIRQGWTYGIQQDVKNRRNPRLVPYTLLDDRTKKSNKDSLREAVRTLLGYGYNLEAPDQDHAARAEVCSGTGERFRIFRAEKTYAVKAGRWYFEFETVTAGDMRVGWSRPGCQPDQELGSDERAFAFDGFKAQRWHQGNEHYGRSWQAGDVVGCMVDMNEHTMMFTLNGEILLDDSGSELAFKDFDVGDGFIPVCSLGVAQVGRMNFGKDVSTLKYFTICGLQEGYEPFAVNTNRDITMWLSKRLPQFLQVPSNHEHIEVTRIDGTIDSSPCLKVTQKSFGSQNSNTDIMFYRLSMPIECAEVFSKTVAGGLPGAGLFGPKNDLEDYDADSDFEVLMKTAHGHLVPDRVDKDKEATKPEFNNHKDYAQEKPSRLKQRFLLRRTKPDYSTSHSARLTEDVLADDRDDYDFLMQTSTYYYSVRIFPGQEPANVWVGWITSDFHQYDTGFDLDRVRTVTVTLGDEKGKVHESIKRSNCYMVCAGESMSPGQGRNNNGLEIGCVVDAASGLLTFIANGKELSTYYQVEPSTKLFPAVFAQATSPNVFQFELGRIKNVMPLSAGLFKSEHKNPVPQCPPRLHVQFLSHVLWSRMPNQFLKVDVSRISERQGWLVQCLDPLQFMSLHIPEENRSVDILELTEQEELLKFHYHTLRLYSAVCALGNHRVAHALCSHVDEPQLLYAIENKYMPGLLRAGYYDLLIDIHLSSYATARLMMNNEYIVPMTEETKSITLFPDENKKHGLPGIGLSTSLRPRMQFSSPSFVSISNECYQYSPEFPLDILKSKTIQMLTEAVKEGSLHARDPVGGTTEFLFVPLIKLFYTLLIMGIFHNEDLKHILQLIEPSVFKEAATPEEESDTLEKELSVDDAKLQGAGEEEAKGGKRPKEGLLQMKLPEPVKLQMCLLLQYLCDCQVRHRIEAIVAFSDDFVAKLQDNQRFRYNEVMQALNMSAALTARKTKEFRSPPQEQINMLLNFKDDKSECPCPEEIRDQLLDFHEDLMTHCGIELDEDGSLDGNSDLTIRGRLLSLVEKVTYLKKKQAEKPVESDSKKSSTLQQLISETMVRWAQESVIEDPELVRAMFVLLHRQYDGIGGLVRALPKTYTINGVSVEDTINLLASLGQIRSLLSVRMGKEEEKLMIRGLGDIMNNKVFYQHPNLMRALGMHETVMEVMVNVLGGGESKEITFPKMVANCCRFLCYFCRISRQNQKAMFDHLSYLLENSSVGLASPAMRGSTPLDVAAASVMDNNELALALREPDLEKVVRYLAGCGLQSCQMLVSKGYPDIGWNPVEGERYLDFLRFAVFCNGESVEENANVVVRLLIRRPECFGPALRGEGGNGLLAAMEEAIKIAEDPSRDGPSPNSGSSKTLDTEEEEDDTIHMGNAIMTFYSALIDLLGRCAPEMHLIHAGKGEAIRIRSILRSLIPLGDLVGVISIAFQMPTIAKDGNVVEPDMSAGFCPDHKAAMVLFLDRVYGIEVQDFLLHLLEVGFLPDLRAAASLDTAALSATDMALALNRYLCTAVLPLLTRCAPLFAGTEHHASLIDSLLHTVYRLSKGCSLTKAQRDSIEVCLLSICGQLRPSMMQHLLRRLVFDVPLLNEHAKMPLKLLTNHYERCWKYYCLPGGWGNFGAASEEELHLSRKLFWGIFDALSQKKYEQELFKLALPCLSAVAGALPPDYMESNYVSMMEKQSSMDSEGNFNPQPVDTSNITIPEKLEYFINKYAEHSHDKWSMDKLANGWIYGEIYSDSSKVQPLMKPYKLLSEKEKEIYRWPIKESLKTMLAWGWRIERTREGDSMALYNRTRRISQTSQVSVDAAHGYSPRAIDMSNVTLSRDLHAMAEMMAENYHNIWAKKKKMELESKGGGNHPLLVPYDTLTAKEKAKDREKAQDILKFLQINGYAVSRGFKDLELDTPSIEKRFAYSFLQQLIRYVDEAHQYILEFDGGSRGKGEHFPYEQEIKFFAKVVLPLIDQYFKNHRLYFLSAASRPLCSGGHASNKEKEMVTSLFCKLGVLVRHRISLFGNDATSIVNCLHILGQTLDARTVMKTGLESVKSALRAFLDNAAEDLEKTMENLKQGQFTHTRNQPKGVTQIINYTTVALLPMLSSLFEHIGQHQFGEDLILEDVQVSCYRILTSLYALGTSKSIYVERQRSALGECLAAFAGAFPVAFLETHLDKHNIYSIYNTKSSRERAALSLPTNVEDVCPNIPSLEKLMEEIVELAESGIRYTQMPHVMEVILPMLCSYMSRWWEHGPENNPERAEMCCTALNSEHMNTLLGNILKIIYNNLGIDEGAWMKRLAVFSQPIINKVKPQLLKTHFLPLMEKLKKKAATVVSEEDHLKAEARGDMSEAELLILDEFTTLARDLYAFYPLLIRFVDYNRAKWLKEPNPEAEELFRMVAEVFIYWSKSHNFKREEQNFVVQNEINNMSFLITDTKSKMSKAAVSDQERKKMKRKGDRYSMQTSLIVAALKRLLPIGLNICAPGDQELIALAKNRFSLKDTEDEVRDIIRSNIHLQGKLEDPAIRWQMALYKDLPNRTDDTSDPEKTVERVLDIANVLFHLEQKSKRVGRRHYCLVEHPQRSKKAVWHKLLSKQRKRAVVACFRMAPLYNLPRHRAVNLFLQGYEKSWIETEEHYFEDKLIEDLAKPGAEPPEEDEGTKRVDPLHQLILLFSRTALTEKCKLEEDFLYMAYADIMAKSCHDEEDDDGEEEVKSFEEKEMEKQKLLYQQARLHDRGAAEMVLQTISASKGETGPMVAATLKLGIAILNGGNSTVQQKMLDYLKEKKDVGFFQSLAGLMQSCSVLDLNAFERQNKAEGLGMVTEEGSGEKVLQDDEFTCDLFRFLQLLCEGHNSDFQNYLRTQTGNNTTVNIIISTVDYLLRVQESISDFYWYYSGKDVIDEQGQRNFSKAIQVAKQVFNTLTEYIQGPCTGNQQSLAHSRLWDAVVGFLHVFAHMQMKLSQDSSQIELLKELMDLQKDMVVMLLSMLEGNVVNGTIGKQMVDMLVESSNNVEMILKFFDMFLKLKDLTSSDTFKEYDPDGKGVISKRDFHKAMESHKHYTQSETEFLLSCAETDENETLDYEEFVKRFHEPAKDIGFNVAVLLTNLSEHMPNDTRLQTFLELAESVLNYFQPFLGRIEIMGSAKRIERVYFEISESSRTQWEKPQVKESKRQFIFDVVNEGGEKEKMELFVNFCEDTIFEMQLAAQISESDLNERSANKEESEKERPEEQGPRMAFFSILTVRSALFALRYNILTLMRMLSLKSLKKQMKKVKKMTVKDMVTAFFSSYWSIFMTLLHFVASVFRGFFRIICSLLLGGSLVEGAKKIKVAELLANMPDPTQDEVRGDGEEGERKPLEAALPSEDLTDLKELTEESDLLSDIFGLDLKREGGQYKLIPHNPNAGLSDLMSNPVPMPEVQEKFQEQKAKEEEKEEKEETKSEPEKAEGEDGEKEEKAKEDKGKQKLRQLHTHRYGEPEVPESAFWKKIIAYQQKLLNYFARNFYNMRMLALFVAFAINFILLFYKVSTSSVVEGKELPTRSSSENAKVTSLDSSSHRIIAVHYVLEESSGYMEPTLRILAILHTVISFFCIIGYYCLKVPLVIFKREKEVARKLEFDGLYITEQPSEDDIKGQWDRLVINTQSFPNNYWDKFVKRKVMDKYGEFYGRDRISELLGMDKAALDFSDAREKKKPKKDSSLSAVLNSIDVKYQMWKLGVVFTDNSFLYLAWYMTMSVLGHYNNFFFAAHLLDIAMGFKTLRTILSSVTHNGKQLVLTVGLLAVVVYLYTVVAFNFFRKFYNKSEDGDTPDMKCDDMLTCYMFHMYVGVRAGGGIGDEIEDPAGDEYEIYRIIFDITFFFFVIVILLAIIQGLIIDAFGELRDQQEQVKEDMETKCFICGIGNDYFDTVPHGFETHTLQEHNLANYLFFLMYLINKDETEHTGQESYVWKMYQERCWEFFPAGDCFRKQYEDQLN

The pIC50 is −log10 of the IC50, conventionally taken in molar units. Regarding `COc1ccccc1OCCNCC(O)COc1cccc2[nH]c3ccccc3c12` (stereo not shown) [Carvedilol], the “ventricular tachycardia after epinephrine (2 mg/kg) and caffeine (120 mg/kg)” value in the test with RyR2-R4496C KI mice is “abolish epinephrine and caffeine-induced ventricular tachycardia; also recorded: no VT was observed”. The results for the pIC50 (in test [1] (read-out: IC50 for suppressing SOICR); in [1] (read-out: IC50 for suppressing the frequency of SOICR); at β-adrenergic receptors) were approximately 5.00, approximately 5.00 and 8.70 to 9.00, respectively. Moreover, the “concentration that abolishes SOICR” value in test [1] (rat ventricular myocytes, 10 mM extracellular Ca2+) was 50 µM. Besides, the “absolute reduction in mortality” value in test [2] is approximately 7%. In addition, in the test on β-adrenergic receptor, the “concentration that completely blocks the β-adrenergic receptor” value is 100 nM.

Take `COc1ccccc1OCCN1CC(COc2cccc3[nH]c4ccccc4c23)OCC1=O` (stereo not shown) [Compound 2a]: the “ventricular tachycardia after epinephrine (2 mg/kg) and caffeine (120 mg/kg)” value in the test on RyR2-R4496C KI mice (listed as VK-II-36) is “abolish epinephrine and caffeine-induced ventricular tachycardia; also recorded: no VT was observed”. Besides, at RyR2-N4104K mutant (HEK293 RyR2-N4104K, 2 mM [Ca2+]o, various concentrations), the “effect on SOICR” value was “abolish SOICR”. Moreover, at RyR2-N4104K mutant (HEK293 cells (FIG. 5)), the “concentration at which SOICR is suppressed” value is approximately 30 µM. Also, in the test on β-adrenergic receptor (1-1000 nM, preliminary, listed as VK-II-36), the “β-blocking activity (block of isoproterenol-induced RyR2 S2030 phosphorylation)” value was “little β-blocking activity; also recorded: does not block the β-adrenergic receptor”.

`c1ccc2c(c1)[nH]c1cccc(OCC3CN(CCOC4CCCCC4)CCO3)c12` (stereo not shown) [Compound 3d]: the “suppression of SOICR” value in the test on RyR2 is listed as “limited effect”.

As for `COc1ccccc1OCCN1CCOC(COc2cccc3[nH]c4ccccc4c23)C1` (stereo not shown) [Compound 3a], in the test with RyR2, the “suppression of SOICR” value is given as “limited effect”.

For `COc1ccccc1OCCN1CC(COc2cccc3[nH]c4ccccc4c23)OC1=O` (stereo not shown) [Compound 4a], the “suppression of SOICR” value with RyR2 is reported as “limited effect”.

For the molecule `CC/C=C\C/C=C\C/C=C\C/C=C\C/C=C\C/C=C\CCC(=O)O` [DHA, docosahexenoic acid], on RyR2 channel [3], the “effect on RyR2 channel activity” value is recorded as “inhibit RyR2 channel activity”.

On to `COc1cc(Cl)c(Cl)cc1OCCNCC(O)COc1cccc2[nH]c3ccccc3c12` (stereo not shown) [Compound 1b], for which the “suppression of SOICR” value in the test with RyR2 is reported as “activity comparable to that of carvedilol (1a)”. The “concentration that completely blocks the β-adrenergic receptor” value with β-adrenergic receptor is given as 100 nM.

As for `OC(CNCCOc1cc(Cl)c(Cl)cc1Cl)COc1cccc2[nH]c3ccccc3c12` (stereo not shown) [Compound 1c], the “suppression of SOICR” value in the test on RyR2 is “inactive”.

Turning to `CC(C)NCC(O)c1ccc(NS(C)(=O)=O)cc1` (stereo not shown) [Sotalol, sotalol], on mutant RyR2 channels (cell lysates, 3 nM Ca2+, various concentrations of drugs (FIG. 4C)), the “effect on basal channel activity ([3H]ryanodine binding)” value is recorded as “not sotalol, inhibited basal channel activity”. The “effect on channel activity of RyR2” value at mutant RyR2 channels (summary statement) is listed as “absolutely no effect on RyR2”. The “effect on Ca2+ dependence of [3H]ryanodine binding / sensitivity of RyR2 to Ca2+ activation” value at RyR2 channel [4] is recorded as “no significant effect”. Also, the “effect on SOICR” value at RyR2-R4496C mutant is on record as “no significant effect; also recorded: not sotalol inhibited SOICR”; in test [1] (rat ventricular myocytes, up to 300 μM) it was “no effect; also recorded: does not suppress SOICR at all”.

In the case of `CC/C=C\C/C=C\C/C=C\C/C=C\C/C=C\CCCC(=O)O` [EPA, eicosapentenoic acid], at RyR2 channel [3], the “effect on RyR2 channel activity” value was “inhibit RyR2 channel activity”.

For the molecule `OC(CNCCOC1CCCCC1)COc1cccc2[nH]c3ccccc3c12` (stereo not shown) [Compound 1d], the “suppression of SOICR” value in the test on RyR2 was “inactive; also recorded: limited effect”.
